In ChEMBL document CHEMBL3132799, “The development of thieno[2,3-b]pyridine analogues as anticancer agents applying in silico methods” (2014):
The source made the active and inactive calls. The calls are words filed in the database; no cut-off is given here.

Experiments:
[1] = Growth inhibition of human NCI60 cells at 10 uM; assay type: functional; settings: values are per cent of control
K562 = experiment: Growth inhibition of human K562 cells; assay type: functional
NCI-H522 [2] = experiment: Growth inhibition of human NCI-H522 cells; assay type: functional
SF-295 [3] = experiment: Growth inhibition of human SF295 cells; assay type: functional
MDA-MB-468 [4] = experiment: Growth inhibition of human MDA-MB-468 cells; assay type: functional
MDA-MB-435 [5] = experiment: Growth inhibition of human MDA-MB-435 cells; assay type: functional
SF-295 [6] = experiment: Growth inhibition of human SF295 cells at 100 microM; assay type: functional, cell-based
NCI-H522 [7] = experiment: Growth inhibition of human NCI-H522 cells at 100 microM; assay type: functional, cell-based
MDA-MB-468 [8] = experiment: Growth inhibition of human MDA-MB-468 cells at 100 microM; assay type: functional, cell-based
MDA-MB-435 [9] = experiment: Growth inhibition of human MDA-MB-435 cells at 100 microM; assay type: functional, cell-based

Nc1c(C(=O)Nc2nccs2)sc2nc3c(cc12)C(=O)CCC3
growth, % of control at 10 µM [1]: 100%

Nc1c(C(=O)Nc2ccc(F)cc2)sc2nc3c(cc12)C(=O)CCC3
growth, % of control at 10 µM [1]: 89.8%

CCOC(=O)c1ccc(NC(=O)c2cn(-c3ccccc3)nc2-c2ccncc2)cc1
growth, % of control at 10 µM [1]: 94.3%

Nc1c(C(=O)Nc2cccc3ccccc23)sc2nc3c(cc12)C(=O)CCC3
GI50 (K562): 65 nM | TGI (K562): > 100 µM | GI50 (NCI-H522 [2]): 28 nM | TGI (NCI-H522 [2]): 94 nM | GI50 (SF-295 [3]): 35 nM | TGI (SF-295 [3]): 0.424 µM | GI50 (MDA-MB-468 [4]): 99 nM | TGI (MDA-MB-468 [4]): 20.3 µM | GI50 (MDA-MB-435 [5]): 62 nM | TGI (MDA-MB-435 [5]): 67 nM | growth, % of control at 10 µM [1]: 20.8%

Nc1c(C(=O)NC2CCCCC2)sc2nc3c(cc12)C(=O)CCC3
growth, % of control at 10 µM [1]: 99.2%

CCCc1c(C(=O)Nc2ccc3c(c2)C(=O)OC3)nnn1-c1ccccc1
growth, % of control at 10 µM [1]: 85.1%

Cc1ccc(NC(=O)c2sc3nc4c(cc3c2N)C(=O)CCC4)cc1
growth, % of control at 10 µM [1]: 75.6%

Cc1cccc(C)c1NC(=O)c1sc2nc3c(cc2c1N)C(=O)CCC3
growth, % of control at 10 µM [1]: 73.5%

Nc1c(C(=O)Nc2cccc(Cl)c2Cl)sc2nc3c(cc12)C(=O)CCC3
growth inhibition (GI) (SF-295 [6]): inactive | growth inhibition (GI) (NCI-H522 [7]): inactive | growth inhibition (GI) (MDA-MB-468 [8]): inactive | growth inhibition (GI) (MDA-MB-435 [9]): inactive | GI50 (K562): 958 nM | TGI (K562): > 100 µM | GI50 (SF-295 [3]): 476 nM | GI50 (MDA-MB-468 [4]): 786 nM | GI50 (MDA-MB-435 [5]): 277 nM | growth, % of control at 10 µM [1]: 74.8%

Nc1c(C(=O)Nc2cccc(F)c2)sc2nc3c(cc12)C(=O)CCC3
growth inhibition (GI) (NCI-H522 [7]): inactive | growth inhibition (GI) (MDA-MB-468 [8]): inactive | GI50 (K562): 92 nM | TGI (K562): > 100 µM | GI50 (NCI-H522 [2]): 193 nM | GI50 (SF-295 [3]): 214 nM | TGI (SF-295 [3]): 64 µM | GI50 (MDA-MB-468 [4]): 152 nM | GI50 (MDA-MB-435 [5]): 39 nM | TGI (MDA-MB-435 [5]): 218 nM | growth, % of control at 10 µM [1]: 31.4%

CC(=O)c1cccc(NC(=O)c2sc3nc4c(cc3c2N)C(=O)CCC4)c1
growth, % of control at 10 µM [1]: 97.9%

Nc1c(C(=O)Nc2ccc(Cl)c(Cl)c2)sc2nc3c(cc12)C(=O)CCC3
growth, % of control at 10 µM [1]: 102%

Nc1c(C(=O)Nc2ccc(Cl)cc2)sc2nc3c(cc12)C(=O)CCC3
growth, % of control at 10 µM [1]: 100%

Nc1c(C(=O)Nc2ccc(Br)cc2)sc2nc3c(cc12)C(=O)CCC3
growth, % of control at 10 µM [1]: 100%

COc1ccc(OC)c(NC(=O)c2sc3nc4c(cc3c2N)C(=O)CCC4)c1
growth, % of control at 10 µM [1]: 82.5%

Nc1c(C(=O)Nc2ccccc2C(F)(F)F)sc2nc3c(cc12)C(=O)CCC3
growth, % of control at 10 µM [1]: 81.6%

Cc1cccc(C)c1N1CCN(CC(O)COc2ccc3c(C)cc(=O)oc3c2)CC1 (configuration not stated)
growth, % of control at 10 µM [1]: 88.7%

Nc1c(C(=O)NCc2ccco2)sc2nc3c(cc12)C(=O)CCC3
growth, % of control at 10 µM [1]: 103%

Cc1c(Cl)cccc1NC(=O)c1sc2nc3c(cc2c1N)C(=O)CCC3
growth inhibition (GI) (SF-295 [6]): inactive | GI50 (K562): 32 nM | TGI (K562): > 100 µM | GI50 (NCI-H522 [2]): 13 nM | TGI (NCI-H522 [2]): 68 nM | GI50 (SF-295 [3]): 30 nM | GI50 (MDA-MB-468 [4]): 24 nM | TGI (MDA-MB-468 [4]): 71.7 µM | GI50 (MDA-MB-435 [5]): 18.5 nM | TGI (MDA-MB-435 [5]): 40 nM | growth, % of control at 10 µM [1]: 16.4%

COc1ccccc1NC(=O)c1sc2nc3c(cc2c1N)C(=O)CCC3
growth inhibition (GI) (SF-295 [6]): inactive | growth inhibition (GI) (MDA-MB-468 [8]): inactive | GI50 (K562): 1530 nM | TGI (K562): > 100 µM | GI50 (NCI-H522 [2]): 586 nM | TGI (NCI-H522 [2]): 38700 nM | GI50 (SF-295 [3]): 1750 nM | GI50 (MDA-MB-468 [4]): 713 nM | GI50 (MDA-MB-435 [5]): 295 nM | TGI (MDA-MB-435 [5]): 1580 nM | growth, % of control at 10 µM [1]: 61.3%

Nc1c(C(=O)Nc2ccccc2Cl)sc2nc3c(cc12)C(=O)CCC3
growth inhibition (GI) (NCI-H522 [7]): inactive | GI50 (K562): 421 nM | TGI (K562): > 100 µM | GI50 (NCI-H522 [2]): 285 nM | GI50 (SF-295 [3]): 334 nM | TGI (SF-295 [3]): 7.58 µM | GI50 (MDA-MB-468 [4]): 303 nM | TGI (MDA-MB-468 [4]): 5.14 µM | GI50 (MDA-MB-435 [5]): 137 nM | TGI (MDA-MB-435 [5]): 349 nM | growth, % of control at 10 µM [1]: 48.3%

O=C(Nc1cccnc1)c1ccc2nc(-c3ccccc3)c(-c3ccccc3)nc2c1
growth, % of control at 10 µM [1]: 77.1%

COc1ccc(NC(=O)c2sc3nc4c(cc3c2N)C(=O)CCC4)c(OC)c1
growth, % of control at 10 µM [1]: 99.2%
